Experimental data: US11702422B2, “Imidazopyridazines as modulators of IL-17” (Janssen Pharmaceutica NV, priority 2020, dated 2023)

What was measured:
[1] = target: IL-17A(FLAG-Tagged): IL-17RA(His-Tagged) (Homo sapiens, UniProt Q16552, K93Q); assay: IL-17A(FLAG-Tagged): IL-17RA(His-Tagged) Binding Disruption Eu-HTRF Assay; conditions: IL-17A/IL-17RA binding disruption, simple average if tested more than once
Outline: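 IC50 comes from a one-site competition fit of the HTRF 665/620 nm ratio. Compound dilutions (2-fold, 22 points) were held 1 h rt with FLAG-tagged IL-17A dimer, then His-tagged IL-17RA plus Eu-cryptate anti-FLAG and D2 anti-His antibodies were added for 2 h rt.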

[2] = tested on: IL-17A-induced G-CSF production in human normal keratinocyte (NHK); assay: NHK Assay: IL-17A-induced G-CSF production in human normal keratinocytes; format: cell-based; conditions: 24 h, adult normal human keratinocytes, IL-17A 5 ng/mL, simple average if tested more than once
Outline: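 G-CSF released by primary adult human keratinocytes after 24 h at 37° C was quantified by HTRF via standard curve to give IC50. Stimulus was 5 ng/mL IL-17A pre-mixed 1 h at rt with compound dilutions, in 5% FBS and 0.2% DMSO. Cell viability was assessed in parallel with CellTiter-Glo.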

Sequence of UniProt Q16552 (Q16552 with tags, fused parts or gaps K93Q): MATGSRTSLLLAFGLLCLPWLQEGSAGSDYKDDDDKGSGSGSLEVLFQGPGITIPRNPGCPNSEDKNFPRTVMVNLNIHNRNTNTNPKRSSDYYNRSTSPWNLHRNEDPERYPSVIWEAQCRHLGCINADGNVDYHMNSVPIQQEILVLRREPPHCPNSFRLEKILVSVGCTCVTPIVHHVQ

`O=C(CCC(F)(F)F)N[C@@H](c1cnn2cc([C@@H](NC(=O)[C@H]3C[C@H]3CF)C3CCC(F)(F)CC3)nc2c1)C1CC1` (relative stereo) [Example 364, (1S*,2R*)—N—((S)-(7-((R*)-Cyclopropyl(4,4,4-trifluorobutanamido)methyl)imidazo[1,2-b]pyridazin-2-yl)(4,4-difluorocyclohexyl)methyl)-2-(fluoromethyl)cyclopropane-1-carboxamide] showed an IC50 [1] of 2100 nM and an IC50 ([2]; Homo sapiens, Keratinocyte) greater than 20000 nM.

`O=C(CCC(F)(F)F)N[C@@H](c1cnn2cc([C@@H](NC(=O)[C@@H]3C[C@@H]3CF)C3CCC(F)(F)CC3)nc2c1)C1CC1` (relative stereo) [Example 365, (1R*,2S*)—N—((S)-(7-((R*)-Cyclopropyl(4,4,4-trifluorobutanamido)methyl)imidazo[1,2-b]pyridazin-2-yl)(4,4-difluorocyclohexyl)methyl)-2-(fluoromethyl)cyclopropane-1-carboxamide] showed an IC50 [1] of 1200 nM and an IC50 ([2]; Homo sapiens, Keratinocyte) greater than 20000 nM.

`O=C(CCC(F)(F)F)N[C@@H](c1cnn2cc([C@@H](NC(=O)[C@@H]3CC34CCC4)C3CCC(F)(F)CC3)nc2c1)C1CC1` (relative stereo) [Example 366, (R*)—N—((S)-(7-((R*)-Cyclopropyl(4,4,4-trifluorobutanamido)methyl)imidazo[1,2-b]pyridazin-2-yl)(4,4-difluorocyclohexyl)methyl)spiro[2.3]hexane-1-carboxamide] was tested, and the IC50 [1] was 2400 nM and the IC50 ([2]; Homo sapiens, Keratinocyte) was greater than 20000 nM.

`O=C(CCC(F)(F)F)N[C@@H](c1cnn2cc([C@@H](NC(=O)[C@H]3CC34CCC4)C3CCC(F)(F)CC3)nc2c1)C1CC1` (relative stereo) [Example 367, (S*)—N—((S)-(7-((R*)-Cyclopropyl(4,4,4-trifluorobutanamido)methyl)imidazo[1,2-b]pyridazin-2-yl)(4,4-difluorocyclohexyl)methyl)spiro[2.3]hexane-1-carboxamide] showed an IC50 [1] of 240 nM and an IC50 ([2]; Homo sapiens, Keratinocyte) of 630 nM.

Compound `O=C(CCC(F)(F)F)N[C@@H](c1cnn2cc([C@@H](NC(=O)[C@H]3C(F)(F)C34CCC4)C3CCC(F)(F)CC3)nc2c1)C1CC1` (relative stereo) [Example 368, (S*)—N—((S)-(7-((R*)-Cyclopropyl(4,4,4-trifluorobutanamido)methyl)imidazo[1,2-b]pyridazin-2-yl)(4,4-difluorocyclohexyl)methyl)-2,2-difluorospiro[2.3]hexane-1-carboxamide] has an IC50 [1] of 1600 nM and an IC50 ([2]; Homo sapiens, Keratinocyte) of 9800 nM.

Work on `O=C(CCC(F)(F)F)N[C@@H](c1cnn2cc([C@@H](NC(=O)[C@@H]3C(F)(F)C34CCC4)C3CCC(F)(F)CC3)nc2c1)C1CC1` (relative stereo) [Example 369, (R*)—N—((S)-(7-((R*)-Cyclopropyl(4,4,4-trifluorobutanamido)methyl)imidazo[1,2-b]pyridazin-2-yl)(4,4-difluorocyclohexyl)methyl)-2,2-difluorospiro[2.3]hexane-1-carboxamide] yielded an IC50 [1] of 140 nM and an IC50 ([2]; Homo sapiens, Keratinocyte) of 530 nM.

Compound `CC(C)n1nccc1C(=O)N[C@H](c1cn2ncc([C@H](NC(=O)CC3CC(F)(F)C3)C3CC3)cc2n1)[C@@H]1C[C@@H]2[C@H](C1)C2(F)F` (relative stereo) [Example 404, N—((S*)-(7-((R)-Cyclopropyl(2-(3,3-difluorocyclobutyl)acetamido)methyl)imidazo[1,2-b]pyridazin-2-yl)((1R,3s,5S)-6,6-difluorobicyclo[3.1.0]hexan-3-yl)methyl)-1-isopropyl-1H-pyrazole-5-carboxamide] has an IC50 [1] of 180 nM and an IC50 ([2]; Homo sapiens, Keratinocyte) of 58 nM.

Work on `Cc1nonc1C(=O)N[C@H](c1cn2ncc([C@H](NC(=O)CC3CC(F)(F)C3)C3CC3)cc2n1)[C@@H]1C[C@@H]2[C@H](C1)C2(F)F` (relative stereo) [Example 405, N—((S*)-(7-((R)-Cyclopropyl(2-(3,3-difluorocyclobutyl)acetamido)methyl)imidazo[1,2-b]pyridazin-2-yl)((1R,3s,5S)-6,6-difluorobicyclo[3.1.0]hexan-3-yl)methyl)-4-methyl-1,2,5-oxadiazole-3-carboxamide] yielded an IC50 [1] of 100 nM and an IC50 ([2]; Homo sapiens, Keratinocyte) of 350 nM.

Work on `N#CC1([C@@H](NC(=O)C[C@H]2CC2(F)F)c2cnn3cc([C@@H](NC(=O)c4nonc4C4CC4)C4CCC(F)(F)CC4)nc3c2)CCC1` (relative stereo) [Example 449, N—((S)-(7-((S*)-(1-Cyanocyclobutyl)(2-((S*)-2,2-difluorocyclopropyl)acetamido)methyl)imidazo[1,2-b]pyridazin-2-yl)(4,4-difluorocyclohexyl)methyl)-4-cyclopropyl-1,2,5-oxadiazole-3-carboxamide] yielded an IC50 [1] of 28 nM and an IC50 ([2]; Homo sapiens, Keratinocyte) of 4.7 nM.

In the case of `[2H]C([2H])([2H])n1nccc1C(=O)N[C@H](c1cn2ncc([C@@H](NC(=O)CC3CC(F)(F)C3)C3CCC3)cc2n1)C1CCC(F)(F)CC1` (relative stereo) [Example 498, N—((S)-(7-((S*)-Cyclobutyl(2-(3,3-difluorocyclobutyl)acetamido)methyl)imidazo[1,2-b]pyridazin-2-yl)(4,4-difluorocyclohexyl)methyl)-1-methyl-d3)-1H-pyrazole-5-carboxamide], the IC50 [1] is reported as 380 nM and the IC50 ([2]; Homo sapiens, Keratinocyte) is reported as 20000 nM.

For `[2H]C([2H])([2H])C([2H])([2H])n1nccc1C(=O)N[C@H](c1cn2ncc([C@H](NC(=O)C[C@H](C)C(F)(F)F)C3CCC3)cc2n1)C1CCC(F)(F)CC1` (relative stereo) [Example 500, N—((S)-(7-((R*)-Cyclobutyl((S*)-4,4,4-trifluoro-3-methylbutanamido)methyl)imidazo[1,2-b]pyridazin-2-yl)(4,4-difluorocyclohexyl)methyl)-1-(ethyl-d5)-1H-pyrazole-5-carboxamide], the IC50 [1] was 150 nM and the IC50 ([2]; Homo sapiens, Keratinocyte) was 140 nM.

`[2H]C([2H])([2H])C([2H])([2H])n1nccc1C(=O)N[C@H](c1cn2ncc([C@H](NC(=O)C[C@@H](C)C(F)(F)F)C3CCC3)cc2n1)C1CCC(F)(F)CC1` (relative stereo) [Example 501, N—((S)-(7-((R*)-Cyclobutyl((R*)-4,4,4-trifluoro-3-methylbutanamido)methyl)imidazo[1,2-b]pyridazin-2-yl)(4,4-difluorocyclohexyl)methyl)-1-(ethyl-d5)-1H-pyrazole-5-carboxamide] gave an IC50 [1] of 120 nM and an IC50 ([2]; Homo sapiens, Keratinocyte) of 95 nM.

With `[2H]C([2H])([2H])n1nccc1C(=O)N[C@H](c1cn2ncc([C@H](NC(=O)C[C@@H](C)C(F)(F)F)C3CCC3)cc2n1)C1CCC(F)(F)CC1` (relative stereo) [Example 502, N—((S)-(7-((R*)-Cyclobutyl((R*)-4,4,4-trifluoro-3-methylbutanamido)methyl)imidazo[1,2-b]pyridazin-2-yl)(4,4-difluorocyclohexyl)methyl)-1-(methyl-d3)-1H-pyrazole-5-carboxamide] the IC50 [1] was 160 nM and the IC50 ([2]; Homo sapiens, Keratinocyte) was 400 nM.

`[2H]C([2H])([2H])n1nccc1C(=O)N[C@H](c1cn2ncc([C@H](NC(=O)C[C@H](C)C(F)(F)F)C3CCC3)cc2n1)C1CCC(F)(F)CC1` (relative stereo) [Example 503, N—((S)-(7-((R*)-Cyclobutyl((S*)-4,4,4-trifluoro-3-methylbutanamido)methyl)imidazo[1,2-]pyridazin-2-yl)(4,4-difluorocyclohexyl)methyl)-1-(methyl-d3)-1H-pyrazole-5-carboxamide] showed an IC50 [1] of 100 nM and an IC50 ([2]; Homo sapiens, Keratinocyte) of 130 nM.

`[2H]C([2H])([2H])C([2H])([2H])n1nccc1C(=O)N[C@H](c1cn2ncc([C@H](CC)NC(=O)CC3CC(F)(F)C3)cc2n1)C1CCC(F)(F)CC1` (relative stereo) [Example 508, N—((S)-(7-((S*)-1-(2-(3,3-Difluorocyclobutyl)acetamido)propyl)imidazo[1,2-b]pyridazin-2-yl)(4,4-difluorocyclohexyl)methy)-1-(ethyl-d5)-1H-pyrazole-5-carboxamide] gave an IC50 [1] of 1200 nM and an IC50 ([2]; Homo sapiens, Keratinocyte) of 10000 nM.

Compound `CC[C@H](NC(=O)CC1CC(F)(F)C1)c1cnn2cc([C@@H](NC(=O)c3nonc3C3CC3)C3CCC(F)(F)CC3)nc2c1` (relative stereo) [Example 521, 4-Cyclopropyl-N—((S*)-(7-((R)-1-(2-(3,3-difluorocyclobutyl)acetamido)propyl)imidazo[1,2-b]pyridazin-2-yl)(4,4-difluorocyclohexyl)methyl)-1,2,5-oxadiazole-3-carboxamide] has an IC50 [1] of 390 nM and an IC50 ([2]; Homo sapiens, Keratinocyte) of 8000 nM.

`O=C(CC1CC(F)(F)C1)N[C@@H](c1cnn2cc([C@@H](NC(=O)c3nonc3C3CC3)C3CCC(F)(F)CC3)nc2c1)C1CCOCC1` (relative stereo) [Example 536, 4-Cyclopropyl-N—((S)-(7-((R*)-1-(2-(3,3-difluorocyclobutyl)acetamido)(tetrahydro-2H-pyran-4-yl)methylimidazo[1,2-b]pyridazin-2-yl)(4,4-difluorocyclohexyl)methyl)-1,2,5-oxadiazole-3-carboxamide] was tested, and the IC50 [1] was 49 nM and the IC50 ([2]; Homo sapiens, Keratinocyte) was 12 nM.

Compound `O=C(CCC(F)(F)F)NC(c1cnn2cc([C@@H](NC(=O)c3cnn(CCC(F)(F)F)c3)C3CCC(F)(F)CC3)nc2c1)C1CC1` (single isomer, unassigned) [Example 6, N—((S)-(7-((R*)-Cyclopropyl(4,4,4-trifluorobutanamido)methyl)imidazo[1,2-b]pyridazin-2-yl)(4,4-difluorocyclohexyl)methyl)-1-(3,3,3-trifluoropropyl)-1H-pyrazole-4-carboxamide] has an IC50 [1] of 290 nM and an IC50 [2] of 570 nM.
